This is an account of results in patent US20060188895A1, “Rapid prognostic assay for malignancies treated with epidermal growth factor receptor” (The Johns Hopkins University, priority 2004, published 2006).

Broadly, the IC50 is the point on the concentration scale where inhibition reaches its midpoint.

Several values for one entry are separate records, joined by “and”; a condition that tells them apart may be missing. Equal entries are not always repeated.

For test [1], the system named is A431 cells (c-fos mRNA). Description: in vitro c-fos mRNA expression by quantitative RT-PCR. Type of test: cell-based, human.
Test [2] concerns Cal27 cells (c-fos mRNA). Described as above. Type of test: cell-based, human. Particulars: for c-fos after longer exposure: 24-hour exposure. The method, then:
(§1) Five cell lines were used: A431, Cal27, HN11, HuCCT1, and Hep2. HN11 was a gift from Dr David Sidranski's laboratory at Johns Hopkins University (Baltimore, Md.), and A431, Cal27, HuCCT1, and Hep2 were obtained from the American Tissue Culture Collection (Manassas, Va.). A431 is a squamous cell carcinoma, Cal27, HN11 and Hep2 are derived from head and neck squamous carcinomas, and HuCCT1 is a cholangiocarcinoma. The cell lines were grown in 6-well plates with DMEM supplemented with 10% fetal bovine serum (FBS) and penicillin/streptomycin. […] The cells were incubated for 1 hour, media was aspirated, and RNA collected by direct in-well lysis with 0.5 mL of RLT (Qiagen). […] IN VITRO GROWTH INHIBITION STUDIES
(§2) In vitro RNA extraction was performed on non-confluent cells after treatment. Wells were washed with PBS and RLT lysis buffer was added. Two passes from the FNA were put in lysis buffer (Mini Rneasy manufactured by Qiagen) loaded onto a column, washed and eluted into 50 μl TE pH8. Total RNA was extracted using the RNeasy™ Mini Kit (Qiagen, Valencia, Calif.). RNA was transcribed into cDNA by reverse transcription by priming with random hexamers (M-MLTV manufactured by Promega located in Madison, Wis.). The excess hexamers were removed using a column-based clean-up kit (Qiagen).
(§3) Quantitative PCR was performed on an MX3000p thermal cycler (Stratagene) using SYBR green dye method to track the progress of the reactions with ROX dye added as reference. Beta-Globin DNA specific primers were used to test DNA contamination for each sample type. Three housekeeping genes (HPRT, UBC and SDHA) were run in parallel with test genes. The amount of change in the target gene between the control and experimental conditions was found by comparing the threshold cycle (Ct) of the target gene to the geometric mean of the threshold cycles of the housekeeping genes. The geometric mean of the Cts of each of the housekeeping genes, and a change in threshold cycle (delta Ct), between conditions were calculated (dCtHouskeeping=(CtHPRT*CtUBC*CtSDHA)control−(CtHPRT*CtUBC*CtSDHA)exp). The change in threshold cycle for the target gene was calculated directly from Ct under each condition (dCttarget=(Cttarget)control−(Cttarget)exp). The efficiency of the […] raised to its dCt gave a ratio between the control and experimental conditions normalized to the housekeeping genes (Ratio=ETarget^dCtTarget/EHousekeeping^dctHousekeeping, where E=Primer efficiency, and Ct=Threshold cycle).

The test system of test [3] is HN11 cells (c-fos mRNA). Described as above. The test is classed as cell-based, human. Particulars: for c-fos after longer exposure: 24-hour exposure. The method, then:
as §1, §2, §3

Test [4] has as its system Hep2 cells (c-fos mRNA). The test is described as above. Type of test: cell-based, human. To be noted: for c-fos levels with time compared to baseline: 24-hour exposure. The method, then:
as §1, §2, §3

Test [5] concerns HuCCT1 cells (c-fos mRNA). The test is described as above. Type of test: cell-based, human. Particulars: for c-fos levels with time compared to baseline: 24-hour exposure. As for the experimental part:
as §1, §2, §3

Test [6] relates to Cal27 cells. The test is classed as cell-based, human. Particulars: CAL27 (EGF-inducible c-fos line); 0-10 μM, 72 hours, 10% FBS.
Test [7] concerns HN11 cells. The test is classed as cell-based, human. To be noted: HN11 (EGF-inducible c-fos line); 0-10 μM, 72 hours, 10% FBS.
Test [8] concerns HuCCT1 cells. Put plainly: cells. The test is classed as cell-based. Particulars: Homo sapiens, HuCCT-1, MTT, 72 hours, 10% FBS, read-out: IC50 growth inhibition.
Test [9] relates to Hep2 cells. Put plainly: cells. The test is classed as cell-based. Particulars: Homo sapiens, HEp-2, MTT, 72 hours, 10% FBS, read-out: IC50 growth inhibition.
Test [10] concerns CAL27 xenograft tumors (c-fos mRNA). Description: ex vivo molecular assay (c-fos) on FNA material. Type of test: cell-based, mice. To be noted: FNA material from seven CAL27 xenograft tumors; with EGF, 30 to 60 minutes. As for the experimental part:
(§4) FNAs on mice were performed according to standard cytopathologic practice under inhaled general anesthesia (isofluorane) using 10 cc syringes and 25-gauge needles. During each FNA procedure the first pass was smeared onto glass slides and used for morphologic analysis, (DiffQuik™ and Papanicoloau), and the second and third passes for RNA extraction. Eighteen A431 tumors, fourteen CAL27 tumors, eighteen HN11 tumors, fourteen HuCCT1 tumors, and sixteen Hep2 tumors were tested. FNAs were performed at baseline and after 14 days of therapy for each of the tumors. Tumor biopsies on patients were performed following an ultrasonographic-guided, FNA-assisted methodology, with on-site cytopathologic assessment of tissue adequacy at baseline and after 28 days of therapy.
In vitro RNA extraction was performed on non-confluent cells after treatment. […]
(§5) Quantitative PCR was performed on an MX3000p thermal cycler (Stratagene) using SYBR green dye method to track the progress of the reactions with ROX dye added as reference. […] The geometric mean of the Cts of each of the housekeeping genes, and a change in threshold cycle (delta Ct), between conditions were calculated (dCtHouskeeping=(CtHPRT*CtUBC*CtSDHA)control−(CtHPRT*CtUBC*CtSDHA)exp). The change in threshold cycle for the target gene was calculated directly from Ct under each condition (dCttarget=(Cttarget)control−(Cttarget)exp). […]

In test [11] the test system is CAL27 xenograft tumors. Put plainly: in vivo growth inhibition and tumor c-fos, xenograft. The arrangement: species or system athymic nude mice. The method, then:
(§6) Five groups of 14-16 six-week-old female athymic nude mice (Harlan, Ind., US) were used. 1.5-5×10^6 A431, CAL27, HN11, HuCCT1, and Hep2 cells were injected subcutaneously in each flank. […].
as §4, §2, §3

The test system of test [12] is HN11 xenograft tumors. The test is described as above. The arrangement: species or system athymic nude mice. As for the experimental part: as §6, §4, §2, §3
Test [13] has as its system Hep2 xenograft tumors. The test is described as above. Also noted: species or system athymic nude mice. The method, then:
as §6, §4, §2, §3

In test [14] the test system is A431 xenograft tumors. Described as above. Also noted: species or system athymic nude mice. As for the experimental part:
as §6, §4, §2, §3

The test system of test [15] is HuCCT1 xenograft tumors. Described as above. Also noted: species or system athymic nude mice. The method, then:
as §6, §4, §2, §3

Test [16] relates to c-fos in patient tumor samples. Description: c-fos in paired patient tumor samples. The test is classed as in vivo, patients. As for the experimental part:
as §4, with “therapy. […]” for “therapy.”
as §5

The subject of test [17] is Ki67 proliferation index in patient tumor samples. Description: Ki67 proliferation index in paired patient tumor samples (immunohistochemistry). Type of test: in vivo, patients. Particulars: patient #3; 500 mg/day (FIG. 7 legend).
Procedure: FNAs on mice were performed according to standard cytopathologic practice under inhaled general anesthesia (isofluorane) using 10 cc syringes and 25-gauge needles. During each FNA procedure the first pass was smeared onto glass slides and used for morphologic analysis, (DiffQuik™ and Papanicoloau), and the second and third passes for RNA extraction. […] FNAs were performed at baseline and after 14 days of therapy for each of the tumors. Tumor biopsies on patients were performed following an ultrasonographic-guided, FNA-assisted methodology, with on-site cytopathologic assessment of tissue adequacy at baseline and after 28 days of therapy.
Core biopsies from patients were processed using standard procedures (formalin-fixed, and paraffin embedded). Five-micron sections were used for Ki67 staining that was performed following the manufacturer's instructions (M7187 manufactured by DAKO located in Carpinteria, Calif.).
For test [18], the system named is metastatic or inoperable malignancy. Put plainly: clinical response of patients treated with gefitinib. Type of test: in vivo. Particulars: five patients; 500 mg daily; 2, 4, 2, 2 and 5+ 1-month cycles. The text has this: Patients were required to be 18 years of age or older, and have histologically documented metastatic or inoperable malignancy amenable to sequential biopsies, and for which there was no known curative or standard palliative regimen (or failure of such regimens have occurred). […] The scientific review board of our institution granted protocol approval and patients were required to provide written informed consent prior to enrollment into the study.

[19] abbreviates: EGF 100 ng/mL, normalized to media.
Setting [20] is: 50 mgr/kg IP once a day for 14 days.
The mark [21] stands for this setting: day 14 treated vs control, P<0.05.
Where [22] appears, read: 10 μM, 1-hour exposure, with EGF.
Setting [23] is: 100 mgr/kg IP once a day for 14 days.

Take “EGF: human epidermal growth factor 100 ng/mL (EGF; Sigma), EGFR ligand used as stimulus”: the entries for the “c-fos mRNA level after brief exposure to EGF” value in [1] (setting [19]), in test [2] (setting [19]) and in test [3] (setting [19]) were 126 fold, 151 fold and 86 fold, respectively. Besides, the “c-fos increase upon exposure to EGF” value is recorded as 4.1 fold in test [4] (setting [19]) and 3.6 fold in test [5] (setting [19]).

On to `C#Cc1cccc(Nc2ncnc3cc(OCCOC)c(OCCOC)cc23)c1` [erlotinib], for which the “c-fos after longer exposure” value in test [1] (24-hour exposure), in [2] and in test [3] was “lasting c-fos downregulation” in each case. The “c-fos levels with time compared to baseline” value in test [4] and in [5] was “minimally increased” in each case. Also, the “in vitro sensitivity (growth inhibition, MTT)” value in test [6] and in test [7] was “high” in each case. For the same compound, the half-inhibitory concentration (IC50) in test [8] and in test [9] was above 10 µM throughout. In addition, the “effect on EGF-induced c-fos upregulation” value in test [10] was “abrogation of this response”. Besides, the tumor growth result in [11] (setting [20]) and in test [12] (setting [20]) was “growth arrest” each time. Further, the “effect on progressive increase in tumor c-fos expression” value in [11] (day 14 treated vs control, P=0.07) was “significantly abrogate”; in test [12] (setting [21]), “significantly abrogate”. The tumor growth response entry in test [13] (setting [20]) is given as “no response”. Also, the tumor c-fos levels result in test [13] (14 days of therapy) was “unchanged”.

As to `COc1cc2ncnc(Nc3ccc(F)c(Cl)c3)c2cc1OCCCN1CCOCC1` [gefitinib], the “effect on EGF-induced c-fos increment” value in test [2] (setting [22]) and in test [3] (setting [22]) was “abrogated” throughout. In addition, the “c-fos after longer exposure” value in test [2] and in [3] was “lasting c-fos downregulation” in each case. Also, the “effect of drug alone on c-fos levels” value in test [2] (without EGF, 1 hour) was “decreased c-fos levels”; in test [3] (without EGF, 1 hour), “decreased c-fos levels”; in test [4] (without EGF, 1 hour) it was “no effect”; in [5] (without EGF, 1 hour), “no effect”. For the same compound, the “c-fos levels with time compared to baseline” value in test [4] and in test [5] was “minimally increased” throughout. Besides, the tumor growth result in test [14] (setting [23]) is “growth arrest”. In addition, in [14] (setting [21]), the “effect on progressive increase in tumor c-fos expression” value is listed as “significantly abrogate”. For the same compound, the tumor growth response entry in test [15] (setting [23]) is listed as “no response”. Besides, the tumor c-fos levels result in test [15] (14 days of therapy) was “unchanged”. The change in c-fos result in test [16] (patient #3, 500 mg/day (FIG. 7 legend)) is reported as “increase”. In addition, the “tumor c-fos after 28 days, of baseline values” in test [16] (two patients with decrease, 500 mg daily) was 56% and 37%. The “reduction of Ki67” value in test [17] was 45%. The objective response entry in [18] was “No objective, confirmed responses”.
